# How the values were obtained:
# Trichomonas vaginalis [1] = experiment: Antiparasitic activity against Trichomonas vaginalis JT assessed as inhibition of parasite growth incubated for 24 hrs by flow cytometric analysis; assay type: functional, organism-based
# Trichomonas vaginalis [2] = experiment: Antiparasitic activity against Trichomonas vaginalis JT assessed as inhibition of parasite growth incubated for 48 hrs by flow cytometric analysis; assay type: functional, organism-based
# [3] = Cytotoxicity against human HeLa cells assessed as reduction in cell viability incubated for 24 hrs by MTT assay; assay type: toxicity, cell-based
# [4] = Cytotoxicity against human HeLa cells assessed as reduction in cell viability incubated for 48 hrs by MTT assay; assay type: toxicity, cell-based
# [5] = Selectivity index, ratio of CC50 for cytotoxicity against human […] cells incubated for 24 hrs to IC50 for antiparasitic activity against Trichomonas vaginalis JT assessed as inhibition of parasite growth incubated for 24 hrs; assay type: toxicity, cell-based; details: read-out: Ratio CC50/IC50
# [6] = Selectivity index, ratio of CC50 for cytotoxicity against human […] cells incubated for 48 hrs to IC50 for antiparasitic activity against Trichomonas vaginalis JT assessed as inhibition of parasite growth incubated for 48 hrs; assay type: toxicity, cell-based; details: read-out: Ratio CC50/IC50
# Trichomonas vaginalis [7] = experiment: Potency index, ratio of metronidazole IC50 to test compound IC50 for antiparasitic activity against Trichomonas vaginalis JT assessed as inhibition of parasite growth incubated for 48 hrs by flow cytometric analysis; assay type: functional
# Trichomonas vaginalis [8] = experiment: Selectivity index, ratio of IC50 for antiparasitic activity against Trichomonas vaginalis JT assessed as inhibition of parasite growth incubated for 24 hrs to IC50 for antiparasitic activity against Trichomonas vaginalis JT assessed as inhibition of parasite growth incubated for 48 hrs; assay type: functional
# Trichomonas vaginalis [9] = experiment: Selectivity index, ratio of IC50 for antiparasitic activity against Trichomonas vaginalis JT assessed as inhibition of parasite growth incubated for 48 hrs to IC50 for antiparasitic activity against Trichomonas vaginalis JT assessed as inhibition of parasite growth incubated for 24 hrs; assay type: functional
Compound,IC50 (Trichomonas vaginalis [1]) [µM],IC50 (Trichomonas vaginalis [2]) [µM],CC50 at 24 h [3] [µM],CC50 at 48 h [4] [µM],selectivity ratio at 24 h [5],selectivity ratio at 48 h [6],Ratio IC50 (Trichomonas vaginalis [7]),Ratio IC50 (Trichomonas vaginalis [8]),Ratio IC50 (Trichomonas vaginalis [9])
O=C(OCCn1cnc([N+](=O)[O-])c1)c1cnn(-c2cccc(F)c2)c1,18.2,18,185,100,10.1,5.58,,,
O=C(OCCn1cnc([N+](=O)[O-])c1)c1cnn(-c2cccc(Cl)c2)c1,10.3,8,218,84.9,21,10.5,,,
O=C(OCCn1cnc([N+](=O)[O-])c1)c1cnn(-c2cccc(Br)c2)c1,5.2,2.1,148,111,28.1,53.8,<=19.2,~2.5,
O=C(OCCn1cnc([N+](=O)[O-])c1)c1cnn(-c2ccc(Cl)c(Cl)c2)c1,5.3,35.5,584,313,110,8.81,,,
O=C(OCCn1cnc([N+](=O)[O-])c1)c1cnn(-c2ccc(Cl)cc2)c1,4.8,10.3,195,177,40.3,17,,,~2
O=C(OCCn1cnc([N+](=O)[O-])c1)c1cnn(-c2ccccc2)c1,7.5,12.6,236,98,31.4,7.7,,,
O=C(OCCn1cnc([N+](=O)[O-])c1)c1cnn(-c2ccc(Br)cc2)c1,15,18.6,69.3,90.4,4.6,4.86,,,
O=C(OCCn1cnc([N+](=O)[O-])c1)c1cnn(-c2cc(Cl)cc(Cl)c2)c1,13.8,4.4,266,164,19.2,37,<=19.2,,
O=[N+]([O-])c1cn(CCO)cn1,19.9,40.6,120,212,6,5.22,,,
Cc1ncc([N+](=O)[O-])n1CCO [METRONIDAZOLE],4.9,39.7,666,286,136,7.19,,,
O=C(OCCn1cnc([N+](=O)[O-])c1)c1cnn(-c2ccc(F)cc2)c1,10.1,3.8,214,182,21,48.2,<=19.2,~2.5,
COc1ccc(-n2cc(C(=O)OCCn3cnc([N+](=O)[O-])c3)cn2)cc1,18.8,24.4,211,141,11.1,5.78,,,
